# Data reported in publication PMC10178848, “Modulating fast skeletal muscle contraction protects skeletal muscle in animal models of Duchenne muscular dystrophy” (The Journal of Clinical Investigation, 2023).
# Key:
# [1] = test system: EDL muscles from mdx mice; assay: Ex vivo eccentric (lengthening) contraction injury, mdx EDL; design: species or system mouse
# Method: (§1) Isometric force was measured ex vivo in mouse EDL and soleus muscle. EDL muscle eccentric injury was based on published protocols ([30]), with degree of lengthening and stimulation modified to yield a uniform drop in mdx isometric and peak force over 10 contractions. After isolation, muscle was mounted via 5-0 suture to a combination servomotor/force transducer (300C-LR, Aurora) between 2 electrodes connected to a stimulator (701C, Aurora) in Ringers solution at 27°C with continuously infused CO2/O2 gas mixture. Experiments were recorded with custom MATLAB software via a National Instruments PCIe-6321 board and 2090A BNC connector. Muscles were preincubated for 60 minutes with DMSO (final 0.1%)/compound before 10 eccentric contractions, 1 minute apart, with 100 milliseconds of isometric stimulation at 100 Hz and active lengthening of 0.1 L0 at a rate of 2 L0/s. After lengthening, muscles were held at 1.1 L0 with stimulation for 100 milliseconds (Supplemental Figure 2A).
# PIK3CA = biological target: T1, PIK3CA (Homo sapiens, UniProt P42336); assay: KINOMEscan scanEDGE; assay type: binding; conditions: 20 uM
# T1 construct: purchased Eurofins DiscoverX (KINOMEscan; SAFETYscan E/IC50 ELECT)
# T1 sequence (P42336 whole entry): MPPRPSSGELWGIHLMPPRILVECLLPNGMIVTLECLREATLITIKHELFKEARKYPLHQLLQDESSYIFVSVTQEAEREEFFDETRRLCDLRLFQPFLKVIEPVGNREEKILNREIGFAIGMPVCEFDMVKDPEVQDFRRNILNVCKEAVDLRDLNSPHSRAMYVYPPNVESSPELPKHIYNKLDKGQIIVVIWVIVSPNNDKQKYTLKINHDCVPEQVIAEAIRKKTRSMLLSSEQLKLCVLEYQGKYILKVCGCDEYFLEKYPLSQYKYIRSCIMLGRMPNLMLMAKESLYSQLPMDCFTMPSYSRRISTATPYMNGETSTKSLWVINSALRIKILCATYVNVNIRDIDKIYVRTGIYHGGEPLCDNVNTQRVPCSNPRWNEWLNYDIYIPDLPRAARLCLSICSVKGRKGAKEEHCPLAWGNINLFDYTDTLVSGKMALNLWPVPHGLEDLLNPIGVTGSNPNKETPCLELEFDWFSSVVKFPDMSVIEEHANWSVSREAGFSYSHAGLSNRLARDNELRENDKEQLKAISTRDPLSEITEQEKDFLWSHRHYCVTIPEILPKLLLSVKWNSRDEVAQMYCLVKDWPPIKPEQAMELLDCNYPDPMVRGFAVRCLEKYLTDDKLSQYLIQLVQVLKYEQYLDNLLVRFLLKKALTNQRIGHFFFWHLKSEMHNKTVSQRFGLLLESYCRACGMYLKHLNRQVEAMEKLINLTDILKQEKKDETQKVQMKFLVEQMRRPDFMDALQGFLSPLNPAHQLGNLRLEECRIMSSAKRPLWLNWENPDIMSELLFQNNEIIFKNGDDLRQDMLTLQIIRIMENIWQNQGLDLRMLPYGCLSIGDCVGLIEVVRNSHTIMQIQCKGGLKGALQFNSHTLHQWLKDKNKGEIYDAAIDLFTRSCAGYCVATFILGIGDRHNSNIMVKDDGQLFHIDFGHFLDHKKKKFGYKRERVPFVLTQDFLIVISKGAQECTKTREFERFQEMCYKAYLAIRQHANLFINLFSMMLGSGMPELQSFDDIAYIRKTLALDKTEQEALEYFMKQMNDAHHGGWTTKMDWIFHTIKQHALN
# ERBB4 = biological target: T2, ERBB4 (Homo sapiens, UniProt Q15303); assay: KINOMEscan scanEDGE; assay type: binding; conditions: 20 uM
# T2 construct: purchased Eurofins DiscoverX (KINOMEscan; SAFETYscan E/IC50 ELECT)
# T2 sequence (Q15303 26-1308): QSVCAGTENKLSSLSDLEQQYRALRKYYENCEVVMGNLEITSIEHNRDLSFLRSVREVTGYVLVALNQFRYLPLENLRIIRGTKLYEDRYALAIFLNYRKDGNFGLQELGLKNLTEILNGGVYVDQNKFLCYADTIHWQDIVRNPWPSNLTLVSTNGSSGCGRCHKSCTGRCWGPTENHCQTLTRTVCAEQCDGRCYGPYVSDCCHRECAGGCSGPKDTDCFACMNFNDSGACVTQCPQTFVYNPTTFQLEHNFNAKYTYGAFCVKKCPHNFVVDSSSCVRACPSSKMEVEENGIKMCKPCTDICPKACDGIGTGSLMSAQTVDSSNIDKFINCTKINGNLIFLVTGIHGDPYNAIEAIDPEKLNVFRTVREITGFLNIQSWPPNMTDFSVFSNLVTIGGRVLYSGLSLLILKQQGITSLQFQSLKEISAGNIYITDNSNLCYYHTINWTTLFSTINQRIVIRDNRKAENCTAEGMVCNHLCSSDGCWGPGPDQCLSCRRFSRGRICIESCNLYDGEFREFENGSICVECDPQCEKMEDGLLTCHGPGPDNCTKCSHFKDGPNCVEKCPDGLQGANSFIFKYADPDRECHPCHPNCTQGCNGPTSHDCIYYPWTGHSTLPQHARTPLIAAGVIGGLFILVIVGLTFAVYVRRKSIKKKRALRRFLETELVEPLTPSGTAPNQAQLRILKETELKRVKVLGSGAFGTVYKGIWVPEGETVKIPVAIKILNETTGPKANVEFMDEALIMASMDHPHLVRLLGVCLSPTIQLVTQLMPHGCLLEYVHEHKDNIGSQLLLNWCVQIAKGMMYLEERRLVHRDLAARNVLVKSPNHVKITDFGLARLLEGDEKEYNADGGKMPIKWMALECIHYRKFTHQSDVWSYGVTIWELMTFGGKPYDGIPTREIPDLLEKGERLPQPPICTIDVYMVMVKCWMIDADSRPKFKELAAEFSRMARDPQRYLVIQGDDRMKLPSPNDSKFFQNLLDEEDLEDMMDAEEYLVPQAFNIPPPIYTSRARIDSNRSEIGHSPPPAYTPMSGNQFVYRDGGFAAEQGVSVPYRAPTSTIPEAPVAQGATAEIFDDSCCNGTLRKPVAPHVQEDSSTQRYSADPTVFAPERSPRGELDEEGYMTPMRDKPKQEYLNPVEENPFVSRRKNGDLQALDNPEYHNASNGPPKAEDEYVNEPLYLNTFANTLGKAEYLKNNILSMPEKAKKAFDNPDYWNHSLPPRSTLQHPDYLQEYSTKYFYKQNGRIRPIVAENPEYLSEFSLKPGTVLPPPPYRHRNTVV
# [2] = biological target: T3, smooth muscle myosin S1 isolated from chicken gizzard (Gallus gallus, UniProt P10587); assay: Actin-activated myosin S1 ATPase, smooth muscle; assay type: biochemical
# T3 construct: purchased Cytoskeleton Inc; host or cells: chicken gizzard
# Method: Smooth muscle chicken gizzard S1 was purchased from Cytoskeleton Inc. Other myosin S1 was prepared via published protocols ([21]). Briefly, fresh rabbit psoas and frozen porcine ventricular muscle (Pel-freez) were extracted in 0.3 M KCl, 0.15 M KH2PO4, 1 mM EGTA, 1 mM ATP, 1 mM DTT, pH 6.5, at 4°C. Full-length myosin was purified from each extract via low-ionic precipitations with final precipitation into PM12 buffer (12 mM PIPES, pH 7.0, 2 mM MgCl2). Purified myosin was resuspended in PIPES/EDTA buffer (20 mM PIPES, pH 6.8, 10 mM EDTA, 1 mM DTT) and reacted with 0.2 mg/mL α-chymotrypsin for 30 minutes at room temperature. Proteolysis was quenched with PMSF (final concentration 100 μM), and the reaction was centrifuged for 45 minutes at 230,000g. S1 fragment in the supernatant was dialyzed into PM12 with 0.02% sodium azide and clarified by centrifugation. Sucrose was added to 10% w/v and flash-frozen in liquid N2 and stored at –80°C. […]
# A lactate dehydrogenase/pyruvate kinase enzyme-coupled system ([62]) was used to monitor ATP hydrolysis rates in various muscle preparations. […] A multidrop cassette (Thermo Fisher Scientific) dispensed 10 μL of the coupled enzyme system, calcium, and myofibrils to 10 μL ATP, NADH and PEP to initiate the reaction prior to reading on a plate reader (Envision, Perkin Elmer) for 10 minutes per plate at room temperature. […]
# [3] = test system: mixed fast/slow mouse soleus muscle; assay: Ex vivo isometric force, mouse soleus; conditions: 31% type I, 60% type IIa/IIx
# Method: as §1
# ZAP70 = biological target: T4, ZAP70 (Homo sapiens, UniProt P43403); assay: KINOMEscan scanEDGE; assay type: binding; conditions: 20 uM
# T4 construct: purchased Eurofins DiscoverX (KINOMEscan; SAFETYscan E/IC50 ELECT)
# T4 sequence (P43403 whole entry): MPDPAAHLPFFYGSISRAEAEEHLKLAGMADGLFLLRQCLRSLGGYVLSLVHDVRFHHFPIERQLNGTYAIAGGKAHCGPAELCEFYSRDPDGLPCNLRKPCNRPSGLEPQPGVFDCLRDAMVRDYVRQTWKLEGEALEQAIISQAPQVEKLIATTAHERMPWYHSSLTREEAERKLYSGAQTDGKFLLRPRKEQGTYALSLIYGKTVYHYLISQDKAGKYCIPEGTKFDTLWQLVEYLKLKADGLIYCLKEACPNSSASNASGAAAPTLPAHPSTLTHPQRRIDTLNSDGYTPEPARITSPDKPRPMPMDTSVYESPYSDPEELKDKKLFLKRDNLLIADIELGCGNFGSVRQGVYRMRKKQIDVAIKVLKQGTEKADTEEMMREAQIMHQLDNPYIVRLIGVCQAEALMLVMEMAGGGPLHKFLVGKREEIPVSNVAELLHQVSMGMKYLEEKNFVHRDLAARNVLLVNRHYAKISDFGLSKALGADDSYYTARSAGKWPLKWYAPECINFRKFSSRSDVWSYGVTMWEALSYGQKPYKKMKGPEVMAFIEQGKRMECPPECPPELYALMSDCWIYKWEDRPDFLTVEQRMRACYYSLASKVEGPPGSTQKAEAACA
# CDK9 = biological target: T5, CDK9 (Homo sapiens, UniProt P50750); assay: KINOMEscan scanEDGE; assay type: binding; conditions: 20 uM
# T5 construct: purchased Eurofins DiscoverX (KINOMEscan; SAFETYscan E/IC50 ELECT)
# T5 sequence (P50750 whole entry): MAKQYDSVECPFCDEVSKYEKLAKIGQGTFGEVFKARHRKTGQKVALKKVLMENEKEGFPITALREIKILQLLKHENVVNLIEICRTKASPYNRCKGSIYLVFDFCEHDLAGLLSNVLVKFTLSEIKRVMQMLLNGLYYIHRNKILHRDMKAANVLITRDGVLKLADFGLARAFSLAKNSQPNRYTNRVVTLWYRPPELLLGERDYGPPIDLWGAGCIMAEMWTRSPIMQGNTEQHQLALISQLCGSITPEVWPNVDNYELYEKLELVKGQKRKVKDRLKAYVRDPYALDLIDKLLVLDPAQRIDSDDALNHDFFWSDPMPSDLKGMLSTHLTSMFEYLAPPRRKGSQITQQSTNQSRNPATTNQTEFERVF
# [4] = test system: slow skeletal rat soleus fibers; assay: Skinned fiber force, rat soleus; conditions: 100% type I, EDG-5506
# Method: Measurement of isometric force in skinned fibers from rabbit psoas, rat soleus, and rat cardiac trabeculae were performed as described previously ([65]) with an 802D fiber system (Aurora Scientific). Muscle bundles were thawed from –80°C and placed in relaxing solution. Single fibers were transferred to the testing apparatus with steel pins connected to a force transducer and motor (model 403A and 322C, Aurora Scientific), and collodion glue was applied. Temperature was set to 15°C for skeletal fibers and 30°C for rat cardiac trabeculae. The wells of the 802D were filled with different ratios of relaxing and activating pCa solutions as detailed previously ([65]). All control solutions contained 1% final DMSO. Traces were compared between control and compound runs to evaluate isometric force and calcium sensitivity.
# WT and mdx mice = assay: Voluntary wheel running; assay type: in vivo, mouse; conditions: 50 ppm chow
# Method: Prior to in vivo assessments, mice were dosed PO after a 2-hour fast with 10 mL/Kg suspensions. Grip strength and rotarod assessments were performed masked, 4 hours after dosing using published protocols ([66], [67]). Grip strength was performed with a Columbus Instruments Rodent Force Meter. Forepaw strength represented the average of 5 trials with 30-second rest periods, normalized by BW. Rotarod endurance was performed with a Columbus Instruments RotaMax. Mice were placed on the device drum at 1 rpm, which accelerated 1 rpm every 3 seconds to 12 rpm and a maximal time of 500 seconds. This was repeated 3 times with a 3-minute rest and total time reported. Voluntary wheel running performance was assessed with a customized system. Timestamped RPMs were measured 24 hours per day by infrared sensors, and a custom software calculated distance. Whole-body EBD was visualized after intravenous administration ([35]). EBD in PBS at 10 mg/mL was sterile filtered, and 50 μL/10 g BW was injected via tail vein. After 24 hours, animals were sacrificed, skin was removed and fixed in 4% formalin for 24 hours, and photographed using a Leica/Lumix camera.
# ROCK2 = biological target: T6, ROCK2 (Homo sapiens, UniProt O75116); assay: KINOMEscan scanEDGE; assay type: binding; conditions: 20 uM
# T6 construct: purchased Eurofins DiscoverX (KINOMEscan; SAFETYscan E/IC50 ELECT)
# T6 sequence (O75116 whole entry): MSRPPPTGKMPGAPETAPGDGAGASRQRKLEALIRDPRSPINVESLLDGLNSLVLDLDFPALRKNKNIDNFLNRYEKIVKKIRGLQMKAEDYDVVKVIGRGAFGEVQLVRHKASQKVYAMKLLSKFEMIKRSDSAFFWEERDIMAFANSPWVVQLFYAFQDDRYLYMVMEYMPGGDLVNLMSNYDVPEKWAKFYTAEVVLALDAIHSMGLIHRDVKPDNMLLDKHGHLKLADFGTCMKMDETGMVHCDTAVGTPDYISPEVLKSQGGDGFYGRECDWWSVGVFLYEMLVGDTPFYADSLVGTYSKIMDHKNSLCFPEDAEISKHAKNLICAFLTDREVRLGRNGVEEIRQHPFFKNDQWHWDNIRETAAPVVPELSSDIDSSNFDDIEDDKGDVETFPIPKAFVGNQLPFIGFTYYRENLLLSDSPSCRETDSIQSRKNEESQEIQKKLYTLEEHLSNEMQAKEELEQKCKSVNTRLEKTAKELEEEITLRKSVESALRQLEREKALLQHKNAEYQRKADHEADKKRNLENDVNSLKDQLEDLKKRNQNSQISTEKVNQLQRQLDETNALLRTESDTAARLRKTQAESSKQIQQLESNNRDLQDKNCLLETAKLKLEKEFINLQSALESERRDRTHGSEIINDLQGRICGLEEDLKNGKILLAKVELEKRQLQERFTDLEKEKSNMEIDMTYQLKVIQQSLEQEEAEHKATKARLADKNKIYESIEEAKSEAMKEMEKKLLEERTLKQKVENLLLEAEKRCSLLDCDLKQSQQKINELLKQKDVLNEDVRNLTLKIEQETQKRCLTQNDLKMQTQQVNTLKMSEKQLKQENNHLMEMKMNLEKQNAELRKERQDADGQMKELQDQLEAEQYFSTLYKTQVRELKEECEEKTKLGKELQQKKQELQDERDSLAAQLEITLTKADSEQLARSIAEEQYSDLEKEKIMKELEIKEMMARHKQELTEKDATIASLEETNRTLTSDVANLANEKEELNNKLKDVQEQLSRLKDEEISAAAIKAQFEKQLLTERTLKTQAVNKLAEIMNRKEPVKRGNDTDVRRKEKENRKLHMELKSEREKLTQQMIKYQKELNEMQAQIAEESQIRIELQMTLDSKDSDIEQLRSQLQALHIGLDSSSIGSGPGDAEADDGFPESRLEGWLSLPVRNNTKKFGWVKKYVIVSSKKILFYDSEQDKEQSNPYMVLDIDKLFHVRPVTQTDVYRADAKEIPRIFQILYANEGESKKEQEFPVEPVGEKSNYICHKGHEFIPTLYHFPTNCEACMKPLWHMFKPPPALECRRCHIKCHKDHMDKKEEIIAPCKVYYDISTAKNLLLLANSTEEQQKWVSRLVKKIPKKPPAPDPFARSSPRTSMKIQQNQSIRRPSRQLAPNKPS
structure (smiles),measurement,setting,value
O=c1ccc(-c2cnc(OCC(F)(F)F)nc2)nn1Cc1cncc(F)c1 [EDG-5506],inhibition at 1 µM,"[1]; Mus musculus, at ≤1 μM (near maximal protection), read-out: inhibition of isometric force",~15%
same,strength drop with repeated lengthening contractions,[1]; mdx EDL ex vivo,dramatically lowered
same,concentration giving near maximal protection from strength drop,"[1]; mdx EDL, 10 lengthening contractions, 1-hour preincubation",≤ 1 µM
same,"binding, % of control",PIK3CA,100 % of control
same,"binding, % of control",ERBB4,93 % of control
same,IC50,[2],> 100 µM
same,ex vivo force inhibition,[3],partial force inhibition
same,"binding, % of control",ZAP70,85 % of control
same,"binding, % of control",CDK9,96 % of control
same,"effect on force, slow skeletal fibers",[4],no effect
same,wheel running,WT and mdx mice,no effect
same,"binding, % of control",ROCK2,89 % of control
